Source: ChEMBL document CHEMBL4673388, “Enhancing Antimicrobial Peptide Potency through Multivalent Presentation on Coiled-Coil Nanofibrils” (ACS Med Chem Lett, 2021)
≈ marks a conversion by molar mass, not a printed value. Calls of active or inactive are those of the source. No cut-off for these calls is given here. Residues, ends and D or L forms follow the SMILES beside them.

Legend:
Staphylococcus aureus [1] = assay: Antibacterial activity against methicillin-resistant Staphylococcus aureus ATCC 43300 assessed as inhibition of bacterial growth incubated for 16 to 20 hrs by microdilution method; type: functional; conditions: time 16-20 hrs
Staphylococcus aureus [2] = assay: Antibacterial activity against Staphylococcus aureus ATCC 25923 assessed as inhibition of bacterial growth incubated for 16 to 20 hrs by microdilution method; type: functional; conditions: time 16-20 hrs
Pseudomonas aeruginosa [3] = assay: Antibacterial activity against Pseudomonas aeruginosa ATCC 15442 assessed as inhibition of bacterial growth incubated for 16 to 20 hrs by microdilution method; type: functional; conditions: time 16-20 hrs
Staphylococcus aureus [4] = assay: Antibacterial activity against Staphylococcus aureus ATCC 25923 assessed as inhibition of bacterial growth incubated for 16 to 20 hrs compound conjugated on alpha-helical coiled-coil FF03 peptide by microdilution method; type: functional; conditions: time 16-20 hrs
MCF7 [5] = assay: Cytotoxicity against human MCF7 cells up to 90 ug/ml measured after 48 hrs by CCK8 assay; type: cell-based; conditions: mcf7, 48 h, dose <=90 µg/ml
Staphylococcus aureus [6] = assay: Antibacterial activity against methicillin-resistant Staphylococcus aureus ATCC 43300 assessed as inhibition of bacterial growth incubated for 16 to 20 hrs compound conjugated on alpha-helical coiled-coil FF03 peptide by microdilution method; type: functional; conditions: time 16-20 hrs
Escherichia coli [7] = assay: Antibacterial activity against Escherichia coli ATCC 25922 assessed as inhibition of bacterial growth incubated for 16 to 20 hrs by microdilution method; type: functional; conditions: time 16-20 hrs
Staphylococcus aureus [8] = assay: Bactericidal activity against methicillin-resistant Staphylococcus aureus ATCC 43300 assessed as reduction in bacterial growth at MIC compound conjugated on alpha-helical coiled-coil FF03 peptide measured within 5 hrs by time kill assay; type: functional, organism-based; conditions: time hrs <=5
Cell membrane = assay: Disruption of cell membrane in methicillin-resistant Staphylococcus aureus ATCC 43300 assessed as complete rupture of bacterial cell surface at 9 ug/ml incubated for 3 hrs by scanning electron microscopy; type: subcellular; conditions: dose 9.0 µg/ml
HEK293 [9] = assay: Cytotoxicity against human HEK293 cells up to 90 ug/ml measured after 48 hrs compound conjugated on alpha-helical coiled-coil FF03 peptide by CCK8 assay; type: cell-based; conditions: hek293, 48 h, dose <=90 µg/ml
MCF7 [10] = assay: Cytotoxicity against human MCF7 cells up to 90 ug/ml measured after 48 hrs compound conjugated on alpha-helical coiled-coil FF03 peptide by CCK8 assay; type: cell-based; conditions: mcf7, 48 h, dose <=90 µg/ml
Escherichia coli [11] = assay: Antibacterial activity against Escherichia coli ATCC 25922 assessed as inhibition of bacterial growth incubated for 16 to 20 hrs compound conjugated on alpha-helical coiled-coil FF03 peptide by microdilution method; type: functional; conditions: time 16-20 hrs
Pseudomonas aeruginosa [12] = assay: Antibacterial activity against Pseudomonas aeruginosa ATCC 15442 assessed as inhibition of bacterial growth incubated for 16 to 20 hrs compound conjugated on alpha-helical coiled-coil FF03 peptide by microdilution method; type: functional; conditions: time 16-20 hrs
[13] = Hemolytic activity in human red blood cells at 100 ug/ml incubated for 45 mins; type: ADME, cell-based, Erythrocyte; conditions: red blood cells (erythrocytes), at 100 µg/mL, read-out: Activity
Staphylococcus aureus [14] = assay: Bactericidal activity against methicillin-resistant Staphylococcus aureus ATCC 43300 assessed as reduction in bacterial growth at MIC measured for 25 hrs by time kill assay; type: functional, organism-based
[15] = Hemolytic activity in human red blood cells at 100 ug/ml incubated for 45 mins compound conjugated on alpha-helical colied-coil FF03 peptide; type: ADME, cell-based, Erythrocyte; conditions: red blood cells (erythrocytes), at 100 µg/mL, read-out: Activity
HEK293 [16] = assay: Cytotoxicity against human HEK293 cells up to 90 ug/ml measured after 48 hrs by CCK8 assay; type: cell-based; conditions: hek293, 48 h, dose <=90 µg/ml

CC[C@H]1OC(=O)[C@H](C)[C@@H](O[C@H]2C[C@@](C)(OC)[C@@H](O)[C@H](C)O2)[C@H](C)[C@@H](O[C@@H]2O[C@H](C)C[C@H](N(C)C)[C@H]2O)[C@](C)(O)C[C@@H](C)C(=O)[C@H](C)[C@@H](O)[C@]1(C)O [ERYTHROMYCIN]
MIC (Staphylococcus aureus [1]): > 128 µM

CN[C@H](CC(C)C)C(=O)N[C@H]1C(=O)N[C@@H](CC(N)=O)C(=O)N[C@H]2C(=O)N[C@H]3C(=O)N[C@H](C(=O)N[C@H](C(=O)O)c4cc(O)cc(O)c4-c4cc3ccc4O)[C@H](O)c3ccc(c(Cl)c3)Oc3cc2cc(c3O[C@@H]2O[C@H](CO)[C@@H](O)[C@H](O)[C@H]2O[C@H]2C[C@](C)(N)[C@H](O)[C@H](C)O2)Oc2ccc(cc2Cl)[C@H]1O [VANCOMYCIN]
MIC (Staphylococcus aureus [2]): 1.38 µM (≈ 2 µg/mL)
MIC (Staphylococcus aureus [1]): 0.5 µM (≈ 0.725 µg/mL)

GENTAMICIN
MIC (Pseudomonas aeruginosa [3]): 1.63 µM

CC(=O)NC[C@H]1CN(c2ccc(N3CCOCC3)c(F)c2)C(=O)O1 [LINEZOLID]
MIC (Staphylococcus aureus [2]): 1.5 µM (≈ 0.506 µg/mL)
MIC (Staphylococcus aureus [1]): 4 µM (≈ 1.35 µg/mL)

NC[C@H]1O[C@H](O[C@H]2[C@H](O)[C@@H](O[C@H]3O[C@H](CO)[C@@H](O)[C@H](N)[C@H]3O)[C@H](N)C[C@@H]2N)[C@H](O)[C@@H](O)[C@@H]1O [KANAMYCIN]
MIC (Staphylococcus aureus [1]): > 128 µM

COc1cc(Cc2cnc(N)nc2N)cc(OC)c1OC [TRIMETHOPRIM]
MIC (Staphylococcus aureus [1]): 2 µM (≈ 0.581 µg/mL)

CC(C)C[C@H](NC(=O)[C@@H](N)CCCNC(=N)N)C(=O)N1CCC[C@H]1C(=O)N[C@@H](Cc1c[nH]c2ccccc12)C(=O)N[C@@H](CCCNC(=N)N)C(=O)N[C@@H](Cc1c[nH]c2ccccc12)C(=O)N1CCC[C@H]1C(=O)N[C@@H](CCCNC(=N)N)C(=O)N[C@@H](CCCNC(=N)N)C(=O)N1CCC[C@H]1C(=O)N[C@@H](Cc1c[nH]c2ccccc12)C(=O)N[C@@H](CCCNC(=N)N)C(=O)N[C@@H](CCCNC(=N)N)C(=O)O (H-RLPWRWPRRPWRR-OH)
MIC (Staphylococcus aureus [4]): 0.97 µM (≈ 1.86 µg/mL)
Activity (MCF7 [5]): Non-Toxic
MIC (Staphylococcus aureus [6]): 1.75 µM (≈ 3.36 µg/mL)
MIC (Escherichia coli [7]): 130 µM (≈ 250 µg/mL)
MIC (Staphylococcus aureus [2]): 65.2 µM (≈ 125 µg/mL)
Activity (Staphylococcus aureus [8]): Active
Activity (Cell membrane): Active
Activity (HEK293 [9]): Non-Toxic
Activity (MCF7 [10]): Non-Toxic
MIC (Pseudomonas aeruginosa [3]): 65.2 µM (≈ 125 µg/mL)
MIC (Escherichia coli [11]): 2.34 µM (≈ 4.49 µg/mL)
MIC (Pseudomonas aeruginosa [12]): 1.36 µM (≈ 2.61 µg/mL)
hemolysis at 0.75 h, 100 ug/ml [13]: < 15%
Activity (Staphylococcus aureus [14]): Active
hemolysis at 0.75 h, 100 ug/ml [15]: < 15%
MIC (Staphylococcus aureus [1]): 130 µM (≈ 250 µg/mL)
Activity (HEK293 [16]): Non-Toxic
